According to US11285144B2, “Use of CDK8 inhibitors to treat diseases of inflammation and autoimmunity” (THE BROAD INSTITUTE, INC., priority 2016, dated 2022):
“Also recorded” adds a separate entry of the source.

What was measured:
STAT1 = STAT1 phosphorylation in IFNγ-stimulated BMDCs; assay type: cell-based, mouse; conditions: IFNγ-induced
Source text: (§1) Together, these kinase profiling, binding assay, enzyme inhibition and cell-based data identify the Mediator-associated kinases CDK8, and to a lesser degree CDK19, as molecular targets of BRD6989.

Cyclin C/CDK8 [1] = biological target: T1, Cyclin C/CDK8 (Homo sapiens, UniProt P49336); assay: Kinase activity of recombinant Cyclin C/CDK8; assay type: biochemical; conditions: recombinant complex
T1 sequence (P49336 whole entry, species assumed): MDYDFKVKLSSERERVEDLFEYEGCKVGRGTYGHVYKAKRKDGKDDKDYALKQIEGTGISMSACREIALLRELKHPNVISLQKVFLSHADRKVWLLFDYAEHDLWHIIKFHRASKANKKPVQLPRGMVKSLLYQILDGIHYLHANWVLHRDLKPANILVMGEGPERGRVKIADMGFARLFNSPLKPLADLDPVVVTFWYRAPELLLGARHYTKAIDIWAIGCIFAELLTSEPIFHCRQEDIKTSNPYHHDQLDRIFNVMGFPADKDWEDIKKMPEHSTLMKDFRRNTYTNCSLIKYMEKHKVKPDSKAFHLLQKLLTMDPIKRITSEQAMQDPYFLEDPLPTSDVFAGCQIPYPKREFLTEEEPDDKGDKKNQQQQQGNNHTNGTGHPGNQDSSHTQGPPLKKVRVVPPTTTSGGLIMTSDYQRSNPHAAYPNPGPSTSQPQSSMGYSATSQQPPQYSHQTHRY
T1 sequence (P24863 whole entry partner, species assumed): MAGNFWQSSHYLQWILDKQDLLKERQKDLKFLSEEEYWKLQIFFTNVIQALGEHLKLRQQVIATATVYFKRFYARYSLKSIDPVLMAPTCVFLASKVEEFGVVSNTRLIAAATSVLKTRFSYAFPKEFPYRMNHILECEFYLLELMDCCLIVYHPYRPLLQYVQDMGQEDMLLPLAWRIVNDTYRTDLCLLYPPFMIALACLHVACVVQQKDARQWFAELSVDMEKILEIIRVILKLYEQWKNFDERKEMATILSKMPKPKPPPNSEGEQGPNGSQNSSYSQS
Source text: as §1

R848-stimulated BMDCs = assay: IL-10 mRNA levels in BMDCs following R848 stimulation; assay type: cell-based, mouse; conditions: pre-treatment, then R848 stimulation
Protocol: FIG. 5—Cellular activities of the IL-10 hit BRD6989. […] (d) Effect of BRD6989 on IL-10 production in human DCs stimulated with R848 (each point corresponds to mean±S.D.; n=3 biological replicates from 1 independent experiment using cells derived from 1 donor). (e) Chemical structure of the pan-SIK inhibitor HG-9-91-01. (f) Effect of pre-treating BMDCs with HG-9-91-01 (0.5 μM) or BRD6989 (5 μM) on IL-10 mRNA levels following stimulation with R848 (each point corresponds to mean±S.D.; n=4 biological replicates from 1 independent experiment; *, P<0.05; ***, P<0.001 using unpaired, two-tailed Student's t test). Data from all panels is representative of at least 2 independent experiments.
Based on its ability to selectively potentiate IL-10 production by a mechanism that appears temporally distinct from CREB activation, BRD6989 was prioritized for MOA studies.

BMDMs = assay: Transcriptional profiling of stimulated BMDMs; assay type: cell-based, mouse
Protocol: To define systematically the role of CDK8 during innate immune activation, the transcriptional responses elicited by dCA or BRD6989 following stimulation of BMDMs were profiled with a panel of 10 microbial ligands or Sendai virus for time points from 15 min to 4 hours. BMDMs were chosen for these experiments because, like human and mouse DCs, they upregulate IL-10 in response to CDK8 inhibition (FIG. 5c), and they have been previously studied using the multiplexed pathway reporter assay described below (O'Connell, et al., Cell Syst 2:323-34, 2016). In this experiment, the transcriptional responses elicited by BRD6989 and dCA were highly correlated (FIG. 12a), again supporting CDK8 as a principle cellular target of BRD6989.

Cyclin C/CDK8 [2] = biological target: T1, Cyclin C/CDK8; assay: Binding to Cyclin C/CDK8 complex
Source text: (§2) Given that the pyridine core of BRD6989 is a common kinase-binding motif (Xing et al., J Comput Aided Mol Des 28:13-23, 2014), its activity against 414 kinases was profiled using a series of binding and activity assays. […] Binding of BRD6989 to CDK8, and its paralog CDK19, was confirmed using an orthogonal kinase-profiling format.

[3] = test system: mouse bone marrow-derived macrophages (BMDMs); assay: IL-10 production in BMDMs activated with Zymosan A or R848; assay type: cell-based
Source text: (§3) The pyridinyl tetrahydroquinoline BRD6989 (10) emerged as a prioritized hit in the screen (FIG. 2a and Table 2). […] Thus, BRD6989 enhances IL-10 production in activated human and murine macrophages and dendritic cells by a mechanism that appears most pronounced following stimulation of toll-like receptors-7 (TLR7) and TLR8 by R848.

[4] = biological target: recombinant Cyclin C/CDK19 (Homo sapiens, UniProt Q9BWU1); assay: Kinase activity of recombinant Cyclin C/CDK19; assay type: biochemical; conditions: recombinant complex
recombinant Cyclin C/CDK19, sequence (Q9BWU1 whole entry, species assumed): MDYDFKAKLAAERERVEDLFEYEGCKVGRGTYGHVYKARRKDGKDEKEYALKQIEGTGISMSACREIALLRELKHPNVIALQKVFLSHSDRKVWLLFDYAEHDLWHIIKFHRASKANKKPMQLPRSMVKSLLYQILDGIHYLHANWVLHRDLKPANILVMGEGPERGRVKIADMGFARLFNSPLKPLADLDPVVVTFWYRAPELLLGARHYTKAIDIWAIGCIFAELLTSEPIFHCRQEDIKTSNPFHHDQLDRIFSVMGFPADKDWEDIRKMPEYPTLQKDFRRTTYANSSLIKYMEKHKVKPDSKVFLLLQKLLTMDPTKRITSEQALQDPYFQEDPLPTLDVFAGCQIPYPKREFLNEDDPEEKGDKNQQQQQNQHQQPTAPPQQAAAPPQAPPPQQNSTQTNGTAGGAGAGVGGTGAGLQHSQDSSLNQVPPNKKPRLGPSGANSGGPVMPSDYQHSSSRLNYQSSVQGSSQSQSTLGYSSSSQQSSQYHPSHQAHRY
recombinant Cyclin C/CDK19, sequence (P24863 whole entry partner, species assumed): as the sequence (P24863 whole entry partner, species assumed) above
Source text: as §1

[5] = test system: Zymosan A-stimulated BMDCs; assay: Cytokine production by Zymosan A-stimulated BMDCs; assay type: cell-based, mouse
Source text: Towards the goal of identifying new mechanisms of IL-10 regulation, 59,346 small molecules were screened for the ability to enhance IL-10 production by activated bone marrow-derived dendritic cells (BMDCs) using a high-throughput assay developed previously (Sundberg et al., PNAS 111:12468-12473, 2014). Compounds were derived from both commercial collections and structurally and skeletally diverse libraries prepared by diversity-oriented synthesis (DOS). More than 60 hit compounds were identified that reproducibly enhance IL-10 production in a concentration-dependent manner (Table 1). Three distinct chemotypes were prioritized for follow-up based on potency and an initial analysis of structure-activity relationship (SAR) with respect to core scaffold, stereochemistry and side chains (FIG. 2a).
as §3

[6] = test system: human, monocyte-derived DCs; assay: IL-10 production in human monocyte-derived DCs stimulated with R848; assay type: cell-based
Source text: as §3
Pre-treatment with these CDK8/19 inhibitors recapitulated the IL-10 potentiating activity of BRD6989 in both BMDCs (FIG. 9b) along with human DCs derived from two independent donors in the context of R848 stimulation (FIGS. 9c and 10a).

414 kinases = assay: Kinase profiling by binding and activity assays
Source text: as §2

[7] = test system: Cyclin C/CDK8 complexes in BMDCs; assay: Cytokine production by R848-stimulated BMDCs from CcncΔ/Δ or Ccncf/f mice; assay type: cell-based, mouse
Protocol: Next, to determine whether IL-10 potentiation by CDK8 inhibitors requires functional Cyclin C/CDK8 complexes, differentiation was performed of BMDCs from CcncΔ/Δ mice in which Cyclin C can be specifically disrupted in hematopoietic cells relative to Ccncf/f littermates, which lack the polyinosinic:polycytidylic acid (polyI:C)-responsive Mx1-Cre (Li et al., Nature Cell Biology 16; 1080, 2014) (FIG. 11a). […] The impaired response of BMDCs lacking Cyclin C to BRD6989 and dCA are consistent with a model in which CDK8 restrains IL-10 production during activation of wild type myeloid cells.

SMILES: CC1CCc2nc(N)c(C#N)c(-c3cccnc3)c2C1 (stereo not drawn) [BRD6989]
- JAK-mediated phosphorylation of STAT1 Y701 (STAT1): did not affect
- phosphorylation of STAT1 at S727 (STAT1): inhibited; also recorded: suppresses phosphorylation
- phosphorylation of STAT1 at S727 (STAT1; listed as BRD-6989): Dose dependent inhibition of CDK8 dependent
- IC50 (Cyclin C/CDK8 [1]): ~0.5 µM
- IL-10 mRNA levels (R848-stimulated BMDCs): sustained increase beginning at 4 hours and extending to 24 hours
- expression of interferon-inducible genes Ifit2, Cxcl10 and Rsad2 (BMDMs): reduced expression of the interferon-inducible genes Ifit2, Cxcl10 and Rsad2
- IC50 (Cyclin C/CDK8 [2]): ~0.2 µM
- IL-10 production [3]: increased IL-10 production; also recorded: up-regulates IL-10 production
- IC50 [4]: > 30 µM
- EC50 ([5]; Mus musculus, BMDC, pre-treatment 48 hr, Zymosan A 18 hr, read-out: IL-10 production EC50): ~1 µM
- production of IL-12p40 ([5]; Zymosan A-induced): largely unchanged
- production of TNFα ([5]; Zymosan A-induced): largely unchanged
- release of IL-6 ([5]; Zymosan A-induced): suppressed
- production of IL-1β ([5]; Zymosan A-stimulated / activated BMDCs): largely unchanged
- IL-1β production ([5]; stimulation with R848 or Zymosan A): minimally elevates IL-1β production
- IL-10 production [6]: up-regulated IL-10
- secondary targets in kinase profiling (414 kinases; both kinase profiling experiments): phosphatidylinositol-4,5-bisphosphate 3-kinases C2A (PI3KC2A) and PI3KCG as secondary targets
- kinase selectivity (414 kinases; kinase profiling): remarkable selectivity
- IL-10 upregulation in Ccncf/f BMDCs [7]: remained intact
- IL-10 upregulation in CcncΔ/Δ BMDCs ([7]; Cyclin C deleted): failed to upregulate IL-10
- IL-6 production in CcncΔ/Δ BMDCs ([7]; saturating concentrations): no further reduction
